Data from patent US20150315241A1, “Antibiotic Peptides” (priority 2007, published 2015).
In brackets after ≈: the same amount, converted by molar mass. Where two headings read alike, the source gives them in different places. Where a SMILES comes first, the peptide text is derived from it. Where no end group is shown, it is not given here. [ ]: non-standard residue; d: D form. The star is where a group is joined. Hyp = O=C(O)[C@@H]1C[C@@H](O)CN1; NMeL = CN[C@@H](CC(C)C)C(=O)O; Orn = NCCC[C@H](N)C(=O)O; For = O=C*

Legend:
[1] = system: E. coli BL 21 AI; assay: Growth inhibition assay (MIC); assay type: cell-based, Escherichia coli; conditions: 1% TSB, 37° C., 20 hrs
How it was run: (§1)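 Two-fold serial dilution in 1% TSB, final 125 μg/mL to 60 ng/mL; inoculum 5×10^6 CFU/mL (before 1:1 mixing with peptide). Incubated 20 hrs at 37° C., growth read as absorbance at 595 nm, in triplicate with sterile water as negative control.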

[2] = system: M. luteus ATCC 10240; assay type: cell-based, Micrococcus luteus
How it was run: as §1

[3] = system: E. coli 10233; assay type: cell-based, Escherichia coli
Method: (§2) The minimal inhibition concentrations (MIC) of the apidaecin-derived peptides and peptide-derivatives were determined by a growth inhibition assay using a serial peptide dilution in sterilized round-bottom 96-well plates (polystyrene, U-bottom, Greiner Bio-One GmbH) with a final volume of 100 μL per well. The bacteria, e.g., E. coli BL21 A1, were grown in nutrient broth (NB, Carl Roth GmbH+Co. KG, Karlsruhe, Germany) at 37° C. over night. To each well of the 96-well plate, 50 μL of the overnight culture adjusted to 5×10^6 CFU/mL in 1% TSB were added. Lyophilized peptides and peptidomimetics were dissolved in 1% TSB (tryptic soy broth) or water to give a final concentration of 250 μg/mL. Fifty μL of the peptide or peptidomimetics solution were added to the first well of a row on the plate and mixed. Fifty μL of the first well containing the peptide solution were transferred to the second well, mixed and again 50 μL transferred to the next well and so on. Thereby, a two-fold dilution series was obtained starting at 250 μg/mL in the first well down to 120 ng/mL in the 12th well of a row giving a final peptide or peptidomimetics concentration from 125 μg/mL (well 1) to 60 ng/mL (well 12). Plates were incubated at 37° C. for 20 hrs. The absorbance was measured at 595 nm using a TECAN micro plate spectrophotometer (Tecan, Germany). All peptides and peptidomimetics were measured in triplicates. Sterilized water was used as a negative control.
(§3) The bacteria strains were tested: • Eschericha coli 1103, 10233, BL 21 AI, DC 2, • Klebsiella pneumoniae 681, • Micrococcus luteus ATCC 10240, • Mycobacterium vaccae • Bactillus subtillis 347.

[4] = system: E. coli 1103; assay type: cell-based, Escherichia coli
Method: as §2, §3

[5] = system: K. pneumonia 681; assay type: cell-based, Klebsiella pneumoniae
Method: as §2, §3

[6] = system: B. subtilis 347; assay type: cell-based, Bactillus subtillis
How it was run: as §1

[7] = system: E. coli D31; assay type: cell-based, Escherichia coli; conditions: D31, 20 h
How it was run: (§4)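 Broth microdilution with two-fold peptide series, final 125 μg/mL down to 60 ng/mL, against overnight cultures adjusted to 5×10^6 CFU/mL in 1% TSB. Incubated 20 h at 37° C. Growth read by absorbance at 595 nm, triplicates.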

[8] = system: K. Pneumonia K6, ATCC 700603; assay: Growth inhibition assay (MIC); assay type: cell-based, Klebsiella pneumoniae; conditions: multidrug resistant strain; 1% TSB, 37° C., 20 hrs
How it was run: as §4

[9] = system: S. enterica subsp. Enterica serovar. typhi G10215 ATCC 700408; assay type: cell-based, Salmonella enterica; conditions: ATCC 700408, 20 h
How it was run: as §4

[10] = system: E. coli 45849; assay: Growth inhibition assay (MIC); assay type: cell-based, Escherichia coli; conditions: multidrug resistant strain; 1% TSB, 37° C., 20 hrs
How it was run: as §4

[11] = system: S. typhi S5; assay type: cell-based, Salmonella typhi; conditions: S5, 20 h
How it was run: as §4

[12] = system: K. Pneumonia 123132; assay: Growth inhibition assay (MIC); assay type: cell-based, Klebsiella pneumoniae; conditions: multidrug resistant strain; 1% TSB, 37° C., 20 hrs
How it was run: as §4

[13] = system: R. radiobatter ATCC 15955; assay: Growth inhibition assay (MIC); assay type: cell-based, Rhizobium radiobacter; conditions: multidrug resistant strain; 1% TSB, 37° C., 20 hrs
Method: as §2
The following multidrug resistant bacteria strains were tested: • Eschericha coli 45849 and D31, • Klebsiella pneumoniae 123132 and K6, • Salmonella typhi S5 and Salmonella enterica subsp. enterica serovar Typhimurium (ATCC 700408), • Rhizobium radiobacter (ATCC 15955 deposited as Agrobacterium tumefaciens).

| Compound | MIC E. coli BL 21 AI [1] | MIC M. luteus ATCC 10240 ([2]; 1% TSB, 37° C., 20 hrs) | MIC E. coli 10233 ([3]; 1% TSB, 37° C., 20 hrs) | MIC E. coli 1103 ([4]; 1% TSB, 37° C., 20 hrs) | MIC K. pneumonia 681 ([5]; 1% TSB, 37° C., 20 hrs) | MIC B. subtilis 347 ([6]; 1% TSB, 37° C., 20 hrs) | MIC E. coli D31 [7] | MIC K. Pneumonia K6, ATCC 700603 [8] | MIC S. enterica subsp. Enterica serovar. typhi G10215 ATCC 700408 [9] | MIC M. luteus ATCC 10240 ([2]; ATCC 10240, 20 h) | MIC E. coli 10233 ([3]; 10233, 20 h) | MIC E. coli 1103 ([4]; 1103, 20 h) | MIC K. pneumonia 681 ([5]; 20 h) | MIC B. subtilis 347 ([6]; 347, 20 h) | MIC E. coli 45849 [10] | MIC S. typhi S5 [11] | MIC K. Pneumonia 123132 [12] | MIC R. radiobatter ATCC 15955 [13] |
| --- | --- | --- | --- | --- | --- | --- | --- | --- | --- | --- | --- | --- | --- | --- | --- | --- | --- | --- |
| 135 (PEG3000-[Orn]NNRPVYIPRPRPPHPRL-NH2) [compound 135] | >125 µg/mL | 8 µg/mL | >125 µg/mL | >125 µg/mL | >125 µg/mL | >125 µg/mL | – | – | – | – | – | – | – | – | – | – | – | – |
| CC[C@H](C)[C@H](NC(=O)[C@H](Cc1ccc(O)cc1)NC(=O)[C@@H](NC(=O)[C@@H]1CCCN1C(=O)[C@H](CCCNC(=N)N)NC(=O)[C@H](CC(N)=O)NC(=O)[C@H](CC(N)=O)NC(=O)CN)C(C)C)C(=O)N1CCC[C@H]1C(=O)N[C@@H](CCC(N)=O)C(=O)N1CCC[C@H]1C(=O)N[C@@H](CCCNC(=N)N)C(=O)N1CCC[C@H]1C(=O)N1CCC[C@H]1C(=O)N[C@@H](Cc1c[nH]cn1)C(=O)N1CCC[C@H]1C(=O)N[C@@H](CCCNC(=N)N)C(=O)N(C)[C@@H](CC(C)C)C(N)=O [compound 33] (H-GNNRPVYIPQPRPPHPR[NMeL]-NH2) | 15.63 µg/mL (≈ 7.37 µM) | – | – | – | – | – | 32 µg/mL (≈ 15.1 µM) | >128 µg/mL | 8 µg/mL (≈ 3.77 µM) | 31.25 µg/mL (≈ 14.7 µM) | 15.63 µg/mL (≈ 7.37 µM) | 62.5 µg/mL (≈ 29.5 µM) | >125 µg/mL | >125 µg/mL | – | – | – | – |
| CC[C@H](C)[C@H](NC(=O)[C@H](Cc1ccc(O)cc1)NC(=O)[C@@H](NC(=O)[C@@H]1CCCN1C(=O)[C@H](CCCNC(=N)N)NC(=O)[C@H](CC(N)=O)NC(=O)[C@H](CC(N)=O)NC(=O)[C@H](CCCN)NC(C)=O)C(C)C)C(=O)N1CCC[C@H]1C(=O)N[C@@H](CCCNC(=N)N)C(=O)N1C[C@H](O)C[C@H]1C(=O)N[C@@H](CCCNC(=N)N)C(=O)N1CCC[C@H]1C(=O)N1CCC[C@H]1C(=O)N[C@@H](Cc1c[nH]cn1)C(=O)N1CCC[C@H]1C(=O)N[C@@H](CCCNC(=N)N)C(=O)N[C@@H](CC(C)C)C(N)=O [compound 40] (Ac-[Orn]NNRPVYIPR[Hyp]RPPHPRL-NH2) | – | – | – | – | – | – | 8 µg/mL (≈ 3.55 µM) | 16 µg/mL (≈ 7.11 µM) | 4 µg/mL (≈ 1.78 µM) | – | 1.95 µg/mL (≈ 0.866 µM) | 3.91 µg/mL (≈ 1.74 µM) | 3.91 µg/mL (≈ 1.74 µM) | 125 µg/mL (≈ 55.5 µM) | 1 µg/mL (≈ 0.444 µM) | <0.5 µg/mL | 4 µg/mL (≈ 1.78 µM) | 0.33 µg/mL (≈ 0.147 µM) |
| CC[C@H](C)[C@H](NC(=O)[C@H](Cc1ccc(O)cc1)NC(=O)[C@@H](NC(=O)[C@@H]1CCCN1C(=O)[C@H](CCCNC(=N)N)NC(=O)[C@H](CC(N)=O)NC(=O)[C@H](CC(N)=O)NC(=O)[C@@H](N)CCCN)C(C)C)C(=O)N1CCC[C@H]1C(=O)N[C@@H](CCCNC(=N)N)C(=O)N1C[C@H](O)C[C@H]1C(=O)N[C@@H](CCCNC(=N)N)C(=O)N1CCC[C@H]1C(=O)N1CCC[C@H]1C(=O)N[C@@H](Cc1c[nH]cn1)C(=O)N1CCC[C@H]1C(=O)N[C@@H](CCCNC(=N)N)C(=O)N[C@@H](CC(C)C)C(N)=O [compound 45] (H-[Orn]NNRPVYIPR[Hyp]RPPHPRL-NH2) | – | – | – | – | – | – | 8 µg/mL (≈ 3.62 µM) | 4 µg/mL (≈ 1.81 µM) | 2 µg/mL (≈ 0.906 µM) | – | 1.95 to 3.91 µg/mL | 7.81 µg/mL (≈ 3.54 µM) | 7.81 µg/mL (≈ 3.54 µM) | 62.5 µg/mL (≈ 28.3 µM) | 1 µg/mL (≈ 0.453 µM) | <0.5 µg/mL | 4 µg/mL (≈ 1.81 µM) | 0.65 µg/mL (≈ 0.294 µM) |
| CC[C@H](C)[C@H](NC(=O)[C@H](Cc1ccc(O)cc1)NC(=O)[C@@H](NC(=O)[C@@H]1CCCN1C(=O)[C@H](CCCNC(=N)N)NC(=O)[C@H](CC(N)=O)NC(=O)[C@H](CC(N)=O)NC(=O)CNC=O)C(C)C)C(=O)N1CCC[C@H]1C(=O)N[C@@H](CCC(N)=O)C(=O)N1CCC[C@H]1C(=O)N[C@@H](CCCNC(=N)N)C(=O)N1CCC[C@H]1C(=O)N1CCC[C@H]1C(=O)N[C@@H](Cc1c[nH]cn1)C(=O)N1CCC[C@H]1C(=O)N[C@@H](CCCNC(=N)N)C(=O)N[C@@H](CC(C)C)C(N)=O [compound 84] (For-GNNRPVYIPQPRPPHPRL-NH2) | 1.95 µg/mL (≈ 0.913 µM) | – | – | – | – | – | 1 µg/mL (≈ 0.468 µM) | 32 µg/mL (≈ 15 µM) | 0.25 µg/mL (≈ 0.117 µM) | 3.91 µg/mL (≈ 1.83 µM) | 1.95 µg/mL (≈ 0.913 µM) | – | 62.5 µg/mL (≈ 29.3 µM) | >125 µg/mL | 0.5 µg/mL (≈ 0.234 µM) | 0.25 µg/mL (≈ 0.117 µM) | 32 µg/mL (≈ 15 µM) | – |
| GNNRPVYIPQPRPPHPRL [compound 2] | 0.98 µg/mL | – | – | – | – | – | 32 µg/mL | 64 µg/mL | 2 µg/mL | 31.25 µg/mL | 1.95 µg/mL | 7.81 µg/mL | 62.5 µg/mL | >125 µg/mL | – | – | – | – |
| H-LRPHPPRPQPIYVPRNNG-NH2 [compound 141] | >125 µg/mL | – | – | – | – | – | – | – | – | >125 µg/mL | >125 µg/mL | >125 µg/mL | >125 µg/mL | >125 µg/mL | – | – | – | – |
